Results from patent publication US20080075695A1, “COMBINATION THERAPY METHOD FOR TREATING HEPATITIS C VIRUS INFECTION AND PHARMACEUTICAL COMPOSITIONS FOR USE THEREIN” (priority 2006, published 2008).

Tests used:
[1] = target: T1, HCV NS5B protein (genotype 1b, BB7) (Hepatitis C virus genotype 1b, UniProt Q9WMX2); assay: Inhibition of viral RNA-dependent RNA polymerase (RdRp); format: biochemical; details: purified HCV NS5B, C-terminal 21 amino acids removed
T1 construct: of which the carboxyl terminal 21 amino acids were removed to enhance its solubility; made in house; host or cells: E. coli
Source text: The HCV NS5B-directed RdRp activity was established and characterized in a standard in vitro biochemical assay using a purified HCV NS5B protein derived from the consensus sequence of a patient infected with HCV genotype 1b virus (BB7). (See Blight K J et al., Science. 2000, 290:1972-4). The NS5B consensus sequence was cloned and expressed in E. coli as a histidine tagged ([…]) fusion protein, of which the carboxyl terminal 21 amino acids were removed to enhance its solubility.
In addition to evaluating its activity in the replicon assay, as described above, the BZF of Example 1 was also evaluated for antiviral activity using this assay.

HCV = assay: Phase 1b clinical trial (MAD study), plasma HCV RNA; format: in vivo, human; details: for MEAN Δ change from baseline (log HCV RNA level): on-therapy analysis
Source text: A 14 day randomized, double-blind, placebo-controlled, sequential-group study of multiple ascending doses (MAD) included subjects with chronic HCV infection who were naïve to treatment. Subjects were enrolled in sequential, ascending dose cohorts with a target of 16 subjects (12 subjects receiving the BZF and 4 receiving placebo in each cohort). The first cohorts assessed the effect of the BZF as monotherapy compared to placebo. Subsequent cohorts were comprised of subjects who received pegylated interferon alfa-2b (PEG-Intron; 1.5 μg/kg/dose) administered subcutaneously on days −1 and 7 in combination with either placebo or the BZF administered orally (100 mg, 250 mg, 500 mg or 1000 mg every 12 hours, in combinations of 25 mg or 200 mg capsules) from days 1 to 14. […] The mean viral load for each treatment group at study entry was >6.0 log 10 UI/ml HCV RNA.

[2] = Day 14, BZF 100 mg, all genotypes
[3] = Day 14, BZF 250 mg, all genotypes
[4] = Day 14, BZF 500 mg, all genotypes
[5] = Day 14, BZF 1000 mg, all genotypes

CNC(=O)c1c(-c2ccc(F)cc2)oc2cc(N(CCO)S(C)(=O)=O)c(C3CC3)cc12 [BZF, 5-cyclopropyl-2-(4-fluoro-phenyl)-6-[(2-hydroxy-ethyl)-methanesulfonyl-amino]-benzofuran-3-carboxylic acid methylamide]
2 (17%): % Subjects with ≧1.5 log ↓ in log10 HCV RNA (HCV; [2]) | % Subjects with ≧1.5 log ↓ in log10 HCV RNA (HCV; [5]) | % Subjects with ≧2 log ↓ in log10 HCV RNA (HCV; [5])
0%: % Subjects BQL (below quantification limits, <50 IU/mL) (HCV; [2]) | % Subjects with ≧2 log ↓ in log10 HCV RNA (HCV; [2]) | % Subjects with ≧3 log ↓ in log10 HCV RNA (HCV; [2]) | % Subjects BQL (below quantification limits, <50 IU/mL) (HCV; [3]) | % Subjects with ≧1.5 log ↓ in log10 HCV RNA (HCV; [3]) | % Subjects with ≧2 log ↓ in log10 HCV RNA (HCV; [3]) | % Subjects with ≧3 log ↓ in log10 HCV RNA (HCV; [3]) | % Subjects BQL (below quantification limits, <50 IU/mL) (HCV; [4]) | % Subjects with ≧3 log ↓ in log10 HCV RNA (HCV; [4]) | % Subjects BQL (below quantification limits, <50 IU/mL) (HCV; Day 14, BZF 500 mg, genotype 1) | % Subjects with ≧3 log ↓ in log10 HCV RNA (HCV; Day 14, BZF 500 mg, genotype 1) | % Subjects BQL (below quantification limits, <50 IU/mL) (HCV; [5])
1 (13%): % Subjects with ≧1.5 log ↓ in log10 HCV RNA (HCV; Day 14, BZF 500 mg, genotype 1) | % Subjects with ≧2 log ↓ in log10 HCV RNA (HCV; Day 14, BZF 500 mg, genotype 1)
−1.30 log: MEAN Δ change from baseline (log HCV RNA level) (HCV; Day 7, BZF 500 mg every 12 hours, all genotypes)
1 (8%): % Subjects with ≧1.5 log ↓ in log10 HCV RNA (HCV; [4]) | % Subjects with ≧2 log ↓ in log10 HCV RNA (HCV; [4]) | % Subjects with ≧3 log ↓ in log10 HCV RNA (HCV; [5])
< 0.5 µM: IC50 [1]
−1.43 log: MEAN Δ change from baseline (log HCV RNA level) (HCV; Day 4, BZF 500 mg every 12 hours, all genotypes)
−0.64 log: MEAN Δ change from baseline (log HCV RNA level) (HCV; Day 14, BZF 500 mg every 12 hours, all genotypes)
